Data on 16 compounds can be found in patent US9783509B2, “Six-membered C-N-linked aryl sulfide derivatives and aryl sulfoxide derivatives as pest conrol agents” (BAYER CROPSCIENCE AKTIENGESELLSCHAFT, priority 2013, dated 2017).

Series [1] deals with greenhouse red spider mite (Tetranychus urticae). Nature of the series: Tetranychus urticae spray test, OP-resistant (bean leaf discs). The class given is in vivo. As to conditions: application rate 500 g/ha, after 6 days. The essentials:
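Compound dissolved in acetone/DMF and diluted in water with 1000 ppm alkylaryl polyglycol ether emulsifier, then sprayed on bean leaf discs infested with all stages of OP-resistant T. urticae. Mortality in % scored after 6 days (100% = all mites killed).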

In series [2] the test system is southern root-knot nematode (Meloidogyne incognita). Nature of the series: Meloidogyne incognita test (sand, lettuce, acetone solvent, 14 days). Format: in vivo. As to conditions: application rate 20 ppm, after 14 days. In outline:
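Active ingredient in acetone diluted with water, added to sand with nematode egg/larvae suspension and lettuce seeds. Efficacy scored after 14 days from root gall formation (100% = no galls; 0% = as untreated control).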

The nature of series [3]: log P by reversed-phase HPLC analogously to OECD Guideline 117. Format: physicochemical. To be noted: for LogP[a]: [a] acidic range, pH 2.7, formic acid (or trifluoroacetic acid)/acetonitrile; for LogP[b]: [b] neutral range, pH 7.8, ammonium hydrogencarbonate/acetonitrile. The essentials: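 Retention on reversed-phase C18 HPLC (LC-MS), acidic runs at pH 2.7 with formic acid or trifluoroacetic acid/acetonitrile gradients, neutral runs at pH 7.8 with 0.001 molar ammonium hydrogencarbonate/acetonitrile. log P obtained by linear interpolation of retention times against unbranched alkan-2-ones (C3–C16) of known log P.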

For series [4], the system named is larvae of the mustard beetle (Phaedon cochleariae). Nature of the series: Phaedon cochleariae spray test. Format: in vivo. As to conditions: application rate 500 g/ha, after 7 days. The method, then:
Phaedon cochleariae—Spray Test
Solvent: 78.0 parts by weight of acetone • • 1.5 parts by weight of dimethylformamide
(§1) Emulsifier: alkylaryl polyglycol ether
(§2) To produce an appropriate active ingredient formulation, 1 part by weight of active ingredient is dissolved using the specified parts by weight of solvent and made up with water containing an emulsifier concentration of 1000 ppm until the desired concentration is attained. To produce further test concentrations, the preparation is diluted with emulsifier-containing water.
Discs of Chinese cabbage leaves (Brassica pekinensis) are sprayed with an active ingredient formulation of the desired concentration and, after drying, populated with larvae of the mustard beetle (Phaedon cochleariae).
After 7 days, the efficacy in % is determined. 100% means that all the beetle larvae have been killed; 0% means that no beetle larvae have been killed.

The test system of series [5] is greenhouse red spider mite (Tetranychus urticae). In words: Tetranychus urticae spray test, OP-resistant (bean plants). Format: in vivo. As to conditions: application rate 20 ppm, after 7 days. The method, then: Tetranychus urticae—Spray Test, OP-Resistant
(§3) Solvent: 7 parts by weight of dimethylformamide
as §1
To produce an appropriate active ingredient formulation, 1 part by weight of active ingredient is dissolved using the specified parts by weight of solvent and made up with water containing an emulsifier concentration of 1000 ppm until the desired concentration is attained. To produce further test concentrations, the preparation is diluted with emulsifier-containing water. If the addition of ammonium salts or/and penetrants is required, these are each added in a concentration of 1000 ppm to the formulation solution.
Bean plants (Phaseolus vulgaris) heavily infested by all stages of the greenhouse red spider mite (Tetranychus urticae) are treated by spraying with the active ingredient formulation in the desired concentration.
After 7 days, the efficacy in % is determined. 100% means that all the spider mites have been killed; 0% means that none of the spider mites have been killed.

The subject of series [6] is green peach aphid (Myzus persicae). Nature of the series: Myzus persicae spray test (Chinese cabbage leaf discs). Format: in vivo. As to conditions: application rate 500 g/ha, after 6 days. The protocol:
Myzus persicae—Spray Test
Solvent: 78 parts by weight of acetone • • 1.5 parts by weight of dimethylformamide
as §1, §2
Discs of Chinese cabbage leaves (Brassica pekinensis) infested by all stages of the green peach aphid (Myzus persicae) are sprayed with an active ingredient formulation of the desired concentration.
After 6 days, the efficacy in % is determined 100% means that all the aphids have been killed; 0% means that none of the aphids have been killed.

The subject of series [7] is southern root-knot nematode (Meloidogyne incognita). Nature of the series: Meloidogyne incognita test (soil drench, lettuce, 21 days). The class given is in vivo. To be noted: application rate 8 ppm, after 21 days. The method, then:
Meloidogyne incognita Test
as §3
Emulsifier: 2.5 parts by weight of alkylaryl polyglycol ether
To produce an appropriate active ingredient formulation, 1 part by weight of active ingredient is mixed with the stated amounts of solvent and emulsifier, and the concentrate is diluted with water to the desired concentration, it being necessary to include the volume of soil which is drenched in the calculation. It should be noted that a concentration of 20 ppm of emulsifier in the soil is not exceeded. To produce further test concentrations, water is used for dilution.
Pots filled with soil (loamy sand) are watered with the active ingredient solution. An egg/larvae suspension of the southern root-knot nematode (Meloidogyne incognita) is added, lettuce seeds are scattered over the surface of the soil, and they are covered over with quartz sand. The lettuce seeds germinate and the plants develop. The galls develop on the roots
After 21 days, the nematicidal efficacy in % is determined by the formation of galls. 100% means that no galls have been found; 0% means that the number of galls on the treated plants corresponds to the untreated control.

The test system of series [8] is engorged adult female cattle ticks (Boophilus microplus). Nature of the series: Boophilus microplus injection test. As to conditions: application rate 20 μg/animal, assessed after 7 days. Format: in vivo. The protocol: Boophilus microplus—Injection Test
Solvent: dimethyl sulphoxide
To produce an appropriate active ingredient formulation, 10 mg of active ingredient are mixed with 0.5 ml of solvent and the concentrate is diluted with solvent to the desired concentration.
1 μl of the active ingredient solution is injected into the abdomen of 5 engorged adult female cattle ticks (Boophilus microplus). The animals are transferred into dishes and kept in a climate-controlled room.
The efficacy is assessed after 7 days by laying of fertile eggs. Eggs which are not visibly fertile are stored in a climate-controlled cabinet until the larvae hatch after about 42 days. An efficacy of 100% means that none of the ticks has laid any fertile eggs; 0% means that all the eggs are fertile.

In the case of `Cc1cc(F)c(-n2ncc(=O)n(CC3CC3)c2=O)cc1[S+]([O-])CC(F)(F)F` (racemic) [compound 27], the “efficacy (spider mites killed)” value in series [1] is given as 100%. The “nematicidal efficacy (formation of galls)” value (from here on “nematicidal efficacy”) in series [2] came to 100%. In addition, in series [3], the “LogP[a]” value was 2.72 and the “LogP[b]” value came out at 2.65. In addition, in series [4], the “efficacy (beetle larvae killed)” value is on record as 100%.
Regarding `Cc1cc(F)c(-n2ncc(=O)n(CC#N)c2=O)cc1[S+]([O-])CC(F)(F)F` (racemic) [compound 44], the “efficacy (spider mites killed)” value in series [5] is 95%. In addition, the “efficacy (aphids killed)” value in series [6] is recorded as 90%. Moreover, in series [3], the “LogP[a]” value amounted to 2.02 and the “LogP[b]” value was found to be 1.96.
Take `Cc1cc(F)c(-n2ncc(=O)n(Cc3ccccc3)c2=O)cc1[S+]([O-])CC(F)(F)F` (racemic) [compound 45]: the “efficacy (spider mites killed)” value in series [5] is listed as 90%. For the same compound, in series [3], the “LogP[a]” value turned out to be 3.00 and the “LogP[b]” value was found to be 2.9.
As to `Cc1cc(F)c(-n2ncc(=O)n(Cc3ccc[n+]([O-])c3)c2=O)cc1[S+]([O-])CC(F)(F)F` (racemic) [compound 48], the “efficacy (aphids killed)” value in series [6] amounted to 90%. In series [3], the “LogP[a]” value stood at 1.51 and the “LogP[b]” value was 1.45.
Take `Cc1cc(F)c(-n2ncc(=O)n(Cc3cccnc3)c2=O)cc1[S+]([O-])CC(F)(F)F` (racemic) [compound 49]: the “efficacy (aphids killed)” value in series [6] turned out to be 90%. Moreover, in series [3], the “LogP[a]” value came to 1.47 and the “LogP[b]” value was 2.00.
On to `Cc1cc(F)c(-n2ccc(=O)n(CC(F)(F)F)c2=O)cc1[S+]([O-])CC(F)(F)F` (racemic) [compound 60], for which the “efficacy (spider mites killed)” value in series [5] is given as 100%. In series [2], the “nematicidal efficacy” value is 100%. In addition, in series [3], the “LogP[a]” value is given as 2.31 and the “LogP[b]” value stood at 2.34. Also, the “efficacy (beetle larvae killed)” value in series [4] was 100%.
For `Cc1cc(C)c([S+]([O-])CC(F)(F)F)cc1-n1ncc(=O)n(CC(F)(F)F)c1=O` (single isomer, unassigned) [compound 47], the “efficacy (spider mites killed)” value in series [5] was 100%. Further, in series [3], the “LogP[a]” value is 2.72 and the “LogP[b]” value is on record as 2.66.
In the case of `Cc1cc(F)c(-n2ncc(=O)n(CC(F)(F)F)c2=O)cc1[S+]([O-])CC(F)(F)F` (single isomer, unassigned) [compound 50], the “efficacy (spider mites killed)” value in series [5] was found to be 100%. In series [7], the “nematicidal efficacy” value worked out at 99%. Further, in series [3], the “LogP[a]” value worked out at 2.62 and the “LogP[b]” value came to 2.57.
As to `Cc1cc(F)c(-n2ncc(=O)n(C)c2=O)cc1[S+]([O-])CC(F)(F)F` (single isomer, unassigned; (+)) [Ex. No. 29, (+)-2-[2-fluoro-4-methyl-5-(2,2,2-trifluoroethylsulphinyl)phenyl]-4-methyl-1,2,4-triazine-3,5-dione], in series [5], the “efficacy (spider mites killed)” value is reported as 100%. Further, the “efficacy (no fertile eggs laid)” value in series [8] is 100%. The “nematicidal efficacy” value in series [7] came to 100%. Further, in series [3], the “LogP[a]” value was found to be 1.95 and the “LogP[b]” value is listed as 1.9.
Consider `Cc1cc(F)c(-n2ncc(=O)n(CC(F)(F)F)c2=O)cc1SCC(F)(F)F` [compound 10], for which the “efficacy (no fertile eggs laid)” value in series [8] came out at 100%. In addition, the “efficacy (spider mites killed)” value in series [1] is listed as 90%. Also, the “nematicidal efficacy” value in series [2] is listed as 100%. The “LogP[a]” value in series [3] is 3.65. In addition, the “efficacy (beetle larvae killed)” value in series [4] was 83%.
On to `Cc1cc(F)c(-n2ncc(=O)n(CC3CC3)c2=O)cc1SCC(F)(F)F` [compound 25], for which the “efficacy (spider mites killed)” value in series [1] was determined as 100%. For the same compound, in series [2], the “nematicidal efficacy” value was 100%. Also, in series [3], the “LogP[a]” value is 3.79 and the “LogP[b]” value is listed as 3.76. Also, the “efficacy (beetle larvae killed)” value in series [4] stood at 100%.
On to `Cn1c(=O)cnn(-c2ccc(Cl)c(SCC(F)(F)F)c2)c1=O` [compound 32], for which the “efficacy (spider mites killed)” value in series [1] was determined as 100%. Further, the “efficacy (aphids killed)” value in series [6] is on record as 90%. Further, in series [3], the “LogP[a]” value amounted to 2.18 and the “LogP[b]” value stood at 2.16.
On the same counts, the results for `Cc1cc(F)c(-n2ncc(=O)n(Cc3cccnc3)c2=O)cc1SCC(F)(F)F` [compound 43] are 90%, 90%, 2.36 and 2.87.
`C#CCn1c(=O)ccn(-c2cc(SCC(F)(F)F)c(C)cc2F)c1=O` [compound 79]: in series [1], the “efficacy (spider mites killed)” value was found to be 90%. In addition, in series [2], the “nematicidal efficacy” value came to 100%. Besides, in series [3], the “LogP[a]” value came to 2.78 and the “LogP[b]” value is reported as 2.81. Further, in series [4], the “efficacy (beetle larvae killed)” value was 100%.
Turning to `COCn1c(=O)ccn(-c2cc(SCC(F)(F)F)c(C)cc2F)c1=O` [compound 80], the “efficacy (spider mites killed)” value in series [5] is listed as 100%. The “nematicidal efficacy” value in series [2] stood at 100%. Further, in series [3], the “LogP[a]” value is 2.62 and the “LogP[b]” value was 2.66.
Consider `Cc1cc(F)c(-n2ccc(=O)n(CC(F)F)c2=O)cc1SCC(F)(F)F` [compound 82], for which the “efficacy (spider mites killed)” value in series [5] turned out to be 100%. The “nematicidal efficacy” value in series [2] is recorded as 100%. In addition, in series [3], the “LogP[a]” value was 2.99 and the “LogP[b]” value was 3.06.
